The values below come from patent publication US20140073639A1 (priority 2012, published 2014).

Test [1] relates to S. aureus RN4220. As to the kind of experiment: microbe, parasite or virus in culture. It counts as cell-based. Particulars: Staphylococcus aureus, 37° C., 24 hours.
Another test relates to B. anthracis ΔSterne. It counts as cell-based.
Another test deals with S. aureus strain RN4220. The class given is cell-based, Staphylococcus aureus.
In test [2] the test system is Gram-positive organisms that also encode 2-epimerases. It counts as cell-based.
In a further test the test system is B. anthracis Sterne. It counts as in vivo, C57BL/6 mice.
Test [3] relates to S. aureus RN4220. The class given is cell-based.

Each structure is given as a SMILES string. Several values for one entry are separate records, joined by “and”; a condition that tells them apart may be missing. Equal entries are not always repeated. Where two headings read alike, the source gives them in different places.

`O=C(O)C(Cc1ccccc1)N1C(=O)/C(=C\c2ccc(-c3ccc(Br)cc3)s2)NC1=S` (stereo not shown) [Epimerox, 2-{4-[5-(4-bromophenyl)-thiophen-2-ylmethylene]-5-oxo-2-thioxo-imidazolidin-1-yl}-3-phenyl-propionic acid]: in the test with S. aureus RN4220 [1], the MIC was 8 µg/mL and 16 µM. Also, in the test on B. anthracis ΔSterne, the “concentrations that effectively blocked growth” value is on record as “above 3 μM”. In the test on S. aureus strain RN4220, the “Epimerox concentrations at which strain did not grow” value is given as “above 7.5 μm1^−1” and the “growth of S. aureus” value is reported as “grew very poorly”. In test [2], the “growth of many other Gram-positive organisms” value is on record as “inhibited the growth”. In addition, the “B. anthracis in the major organs” value in the test with B. anthracis Sterne (after 2 days) is “not observed”. Besides, in the test with B. anthracis Sterne (at 20 hours), the “B. anthracis in the major organs” value is “detected”. For the same compound, the “animals survived 14 days” value in the test on B. anthracis Sterne (mouse, in vivo) was 100% and 66%. Also, in the test on S. aureus RN4220 [3], the “MIC plateau, serial passage” value came out at 12 μg m1^−1 and the “starting MIC, serial passage” value was determined as 5.0 μg m1^−1.
